Measurements taken from patent US20090270398A1, “Compounds, Compositions and Methods Comprising Pyridazine Derivatives” (Institute for OneWorld Health, priority 2008, published 2009).

target: T1, CFTR (Homo sapiens, UniProt P13569); test: T84 assay (FLIPR membrane potential, forskolin/IBMX-stimulated CFTR channel activity); type: cell-based; conditions: average of at least 2 runs unless annotated n = 1
T1 construct: results in the phosphorylation and opening of CFTR anion channels
Description: (§1) For example, Human colonic T84 cells can be acquired from the European Collection of Cell Cultures (ECACC) and grown in standard culture conditions as described by the supplier. On the day before assay 25,000 T84 cells per well are plated into standard black walled, clear bottom 384-well assay plates in standard growth medium consisting of DMEM:F12 with 10% FBS and incubated overnight. On the day of the assay the plates are washed using a standard assay buffer (HBSS with 10 mM Hepes) and incubated for 15 minutes in serum free cell culture medium before the addition of a commercially available membrane potential sensitive fluorescent dye (FLIPR Red membrane potential dye, Molecular Devices Corporation). T84 cells are incubated with the FLIPR Red membrane potential dye for 45 minutes in the presence and absence of test compound before being transferred to a commercially available fluorescence imaging plate reader (FLIPR384, Molecular Devices Corporation). Fluorescence levels are monitored continuously every second for 150 seconds; after an initial 10 second baseline, CFTR channel activity is stimulated through the addition of 10 μM forskolin in the presence of 100 μM of the phosphodiesterase inhibitor iso-butyl-methylxanthine (IBMX). Addition of the forskolin leads to the activation of intracellular adenylyl cylase 1, elevating cAMP levels and results in the phosphorylation and opening of CFTR anion channels. CFTR channel opening causes chloride ion efflux and subsequent depolarization of the cells, which is measured by an increase in fluorescence. CFTR inhibitor compounds prevent cell depolarization and the associated increase in fluorescence.
as §1, with “Human colonic” for “For example, Human colonic”, “T84 cells are acquired from” for “T84 cells can be acquired from”, “(ECACC) and are grown in” for “(ECACC) and grown in”
Unless otherwise indicated, the IC50 values are reported as an average of at least 2 runs. Where only 1 run is used, this is indicated by the annotation “n=1.”

T1 sequence (P13569 whole entry): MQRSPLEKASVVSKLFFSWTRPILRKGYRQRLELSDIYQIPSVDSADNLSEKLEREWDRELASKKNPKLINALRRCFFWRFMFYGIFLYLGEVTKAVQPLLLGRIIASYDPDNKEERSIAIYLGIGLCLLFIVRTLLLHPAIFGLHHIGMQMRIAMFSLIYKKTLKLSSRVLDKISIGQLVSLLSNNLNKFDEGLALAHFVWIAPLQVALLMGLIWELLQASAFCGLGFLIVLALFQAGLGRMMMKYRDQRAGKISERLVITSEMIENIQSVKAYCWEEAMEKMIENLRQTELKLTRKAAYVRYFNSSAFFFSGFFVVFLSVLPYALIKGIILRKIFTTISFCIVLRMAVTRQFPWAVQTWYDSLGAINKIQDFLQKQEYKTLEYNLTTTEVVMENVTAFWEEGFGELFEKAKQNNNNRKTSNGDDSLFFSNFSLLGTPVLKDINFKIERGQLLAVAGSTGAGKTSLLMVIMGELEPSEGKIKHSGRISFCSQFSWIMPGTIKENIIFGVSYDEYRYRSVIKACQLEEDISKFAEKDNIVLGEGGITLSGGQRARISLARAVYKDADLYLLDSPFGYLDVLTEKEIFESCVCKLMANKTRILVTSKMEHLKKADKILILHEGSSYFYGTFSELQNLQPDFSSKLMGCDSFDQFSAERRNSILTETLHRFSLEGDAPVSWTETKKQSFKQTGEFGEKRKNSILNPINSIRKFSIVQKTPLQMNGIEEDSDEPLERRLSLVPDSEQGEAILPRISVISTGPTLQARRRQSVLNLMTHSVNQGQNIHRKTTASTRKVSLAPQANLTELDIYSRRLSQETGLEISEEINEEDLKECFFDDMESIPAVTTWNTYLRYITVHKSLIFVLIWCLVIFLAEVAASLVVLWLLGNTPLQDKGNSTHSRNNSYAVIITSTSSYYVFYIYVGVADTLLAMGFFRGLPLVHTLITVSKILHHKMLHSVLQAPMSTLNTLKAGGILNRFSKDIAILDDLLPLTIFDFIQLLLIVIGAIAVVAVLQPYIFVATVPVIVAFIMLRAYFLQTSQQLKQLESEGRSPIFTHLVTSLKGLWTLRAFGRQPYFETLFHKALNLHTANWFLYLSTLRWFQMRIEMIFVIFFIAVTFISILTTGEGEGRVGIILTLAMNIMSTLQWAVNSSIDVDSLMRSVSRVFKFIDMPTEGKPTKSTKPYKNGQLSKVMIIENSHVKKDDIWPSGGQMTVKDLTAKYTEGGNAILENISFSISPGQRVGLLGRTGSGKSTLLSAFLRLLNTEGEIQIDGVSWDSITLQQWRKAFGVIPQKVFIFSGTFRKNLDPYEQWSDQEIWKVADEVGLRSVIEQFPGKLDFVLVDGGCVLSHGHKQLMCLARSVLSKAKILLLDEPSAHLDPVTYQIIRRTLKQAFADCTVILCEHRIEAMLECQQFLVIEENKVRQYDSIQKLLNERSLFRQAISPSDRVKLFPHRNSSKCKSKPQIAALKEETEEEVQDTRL

First: OCCN(Cc1ccccc1)c1ccc(-c2cc(Cl)c(O)c(Cl)c2)nn1 [Compound 98, 4-(6-(benzyl(2-hydroxyethyl)amino)pyridazin-3-yl)-2,6-dichlorophenol]
Second: CCN(Cc1ccccc1)c1ccc(-c2cc(Cl)c(O)c(Cl)c2)nn1 [Compound 115, 4-(6-(benzyl(ethyl)amino)pyridazin-3-yl)-2,6-dichlorophenol]
The IC50 of the first is 63-fold higher: 630 nM for the first, 10 nM for the second.

`CCN(Cc1ccc(OCc2ccccc2)cc1)c1ccc(-c2cc(Cl)c(O)c(Cl)c2)nn1` [Compound 128, 4-(6-((4-(benzyloxy)benzyl)(ethyl)amino)pyridazin-3-yl)-2,6-dichlorophenol] and `Oc1c(Cl)cc(-c2ccc(N(Cc3ccccc3)Cc3ccccc3)nn2)cc1Cl` [Compound 133, 2,6-dichloro-4-(6-(dibenzylamino)pyridazin-3-yl)phenol] are within 1.5-fold of each other in IC50: 370 nM for the first, 380 nM for the second.

`CCOc1ccc(CN(CC)c2ccc(-c3cc(Cl)c(O)c(Cl)c3)nn2)cc1OC` [Compound 129, 2,6-dichloro-4-(6-((4-ethoxy-3-methoxybenzyl)(ethyl)amino)pyridazin-3-yl)phenol] and `CCN(Cc1ccc(OC)c(F)c1)c1ccc(-c2cc(Cl)c(O)c(Cl)c2)nn1` [Compound 131, 2,6-dichloro-4-(6-(ethyl(3-fluoro-4-methoxybenzyl)amino)pyridazin-3-yl)phenol] are within 1.5-fold of each other in IC50: 1160 nM for the first, 1460 nM for the second.

First: OCCN(Cc1cccc(OCc2ccccc2Cl)c1)c1ccc(-c2cc(Cl)c(O)c(Cl)c2)nn1 [Compound 130, 2,6-dichloro-4-(6-((3-(2-chlorobenzyloxy)benzyl)(2-hydroxyethyl)amino)pyridazin-3-yl)phenol]
Second: COc1ccc(CN(CCO)c2ccc(-c3cc(Cl)c(O)c(Cl)c3)nn2)cc1OC [Compound 134, 2,6-dichloro-4-(6-((3,4-dimethoxybenzyl)(2-hydroxyethyl)amino)pyridazin-3-yl)phenol]
The IC50 of the first is 3-fold lower: 2270 nM for the first, 6900 nM for the second.

`CN(Cc1ccc2ncccc2c1)c1ccc(-c2cc(Cl)c(O)c(Cl)c2)nn1` [Compound 132, 2,6-dichloro-4-(6-(methyl(quinolin-6-ylmethyl)amino)pyridazin-3-yl)phenol] and `Oc1c(Cl)cc(-c2ccc(NCc3ccc(Cl)c(Cl)c3)nn2)cc1Cl` [Compound 137, 2,6-dichloro-4-(6-(3,4-dichlorobenzylamino)pyridazin-3-yl)phenol] are within 1.5-fold of each other in IC50: 6690 nM for the first, 6000 nM for the second.

`Oc1c(Cl)cc(-c2ccc(N3CCN(c4cccc(F)c4)CC3)nn2)cc1Cl` [Compound 135, 2,6-dichloro-4-(6-(4-(3-fluorophenyl)piperazin-1-yl)pyridazin-3-yl)phenol] and `Oc1c(Cl)cc(-c2ccc(N3CCC(Cc4ccccc4)CC3)nn2)cc1Cl` [Compound 136, 4-(6-(4-benzylpiperidin-1-yl)pyridazin-3-yl)-2,6-dichlorophenol] are within 1.5-fold of each other in IC50: 19600 nM for the first, 24900 nM for the second.

`Oc1c(Cl)cc(-c2ccc(NCc3cc(F)cc(C(F)(F)F)c3)nn2)cc1Cl` [Compound 138, 2,6-dichloro-4-(6-(3-fluoro-5-(trifluoromethyl)benzylamino)pyridazin-3-yl)phenol] was tested, and the IC50 was 9580 nM.

test system: cholera toxin (CTX)-induced net fluid secretion in intestinal loops; test: not given; type: in vivo, mice (CD1 strain); conditions: 4 hours

Going from `OCCN(Cc1ccccc1)c1ccc(-c2cc(Cl)c(O)c(Cl)c2)nn1` [Compound 98, 4-(6-(benzyl(2-hydroxyethyl)amino)pyridazin-3-yl)-2,6-dichlorophenol] to `CCN(Cc1ccccc1)c1ccc(-c2cc(Cl)c(O)c(Cl)c2)nn1` [Compound 115, 4-(6-(benzyl(ethyl)amino)pyridazin-3-yl)-2,6-dichlorophenol], the “closed loop % inhibition @ 100 μg” value rises from 67.0% to 79.4%.
